Experimental data taken from patent publication US8680137B2, “Agents and methods for treating ischemic and other diseases” (Nono Inc., priority 2009, dated 2014).
Entries after “also recorded” stand apart in the source; their conditions may differ. Like-named read-outs stand apart in the source and are kept apart here.

What was measured:
[1] = tested on: B16F1 melanoma cells; test: Cancer cell proliferation, B16F1; assay type: cell-based, mouse; details: B16F1, FIG. 81
Procedure: (§1) To determine the breadth of efficacy in cancers, we examined the efficacy of a range of TRPM7 inhibitors for their ability to inhibit cell proliferation in cancer cell lines. Representative figures are included as examples.
(§2) Cells (Table 1) were grown to 70% confluency, trypsinized, counted, and seeded in 96-well flat-bottom plates at a final concentration of 2.5×10^3-5.0×10^3 cells/well in growth media containing 5% FBS (Day 0). Other well sizes and cell densities were used successfully as well. Cells were allowed to incubate in growth media for 24 hours to allow for maximum adhesion. Treatment with the test agent began on Day 1 and continued for 72 hours either with or without retreatment. At the 72 hour time point, viable cell numbers are quantified by the CellTiter-Glo® cell viability assay as described above, or using standard MTT, SRB or BrDU assays. Experiments were repeated at least twice with the same concentrations to determine growth inhibitory activity.
(§3) Data Collection—For the cell proliferation studies, data from each experiment was collected and expressed as % Cell Growth using the following calculation: % Cell Growth=(ftest/fvehicle)×100 Where ftest is the luminescent signal of the tested sample, and fvehicle is the luminescence of the vehicle in which the drug is dissolved (or appropriate measure for the other viability/proliferation measures). […]

[2] = tested on: DMS53 Lung cancer; test: Cancer cell proliferation, DMS53; assay type: cell-based; details: >20% inhibition at 48-96 hours, MTT, SRB, luminescence or BrDU
Procedure: as §1, §2, §3

[3] = tested on: B16F10 melanoma cells; test: Cancer cell proliferation, B16F10; assay type: cell-based, mouse; details: for proliferation: B16F10, FIG. 81; for Demonstrated Reduction of Proliferation at or below 10 μM Inhibitor concentration: B16F10, >20% inhibition at 48-96 hours, MTT, SRB, luminescence or BrDU; for IC50: Mus musculus
Procedure: as §1, §2
as §3, with “measures). Dose response graphs and IC50 values were generated using standard software using the following variable slope equation:” for “measures).”

[4] = tested on: U2OS osteosarcoma; test: Cancer cell proliferation, U2OS; assay type: cell-based; details: >20% inhibition at 48-96 hours, MTT, SRB, luminescence or BrDU
Procedure: as §1, §2, §3

[5] = tested on: HeLa cervical cancer cells; test: Cancer cell proliferation, HeLa; assay type: cell-based, human; details: FIG. 79
Procedure: as §1, §2, §3

[6] = tested on: Y79 retinoblastoma cells; test: Cancer cell proliferation, Y79; assay type: cell-based
Procedure: as §1, §2
as §3, with “measures). Dose response graphs and IC50 values were generated using standard software using the following variable slope equation:” for “measures).”

[7] = tested on: NIH3T3 fibroblasts; test: Toxicity on NIH3T3 fibroblast cells, PI uptake after 72 hours; assay type: cell-based; details: concentrations that reduce proliferation of cancerous cells
Procedure: To differentiate between an anti-proliferative effect of the TRPM7 inhibitors and cellular toxicity, the compounds were added to various ‘non-cancerous’ cell lines at the same concentrations and the percentage of PI uptake was measured after 72 hours.

[8] = in vivo; details: mouse, mice, highest dose tested, read-out: maximum tolerated dose
[9] = tested on: H292 non small cell lung cancer; test: Cancer cell proliferation, H292; assay type: cell-based; details: for IC50: Homo sapiens
Procedure: as §1, §2
as §3, with “measures). Dose response graphs and IC50 values were generated using standard software using the following variable slope equation:” for “measures).”

[10] = tested on: MDA-MB231 breast cancer cells; test: Cancer cell proliferation, MDA-MB231; assay type: cell-based; details: MDA-MB231, FIG. 80
Procedure: as §1, §2, §3

[11] = tested on: DMS456 lung cancer; test: Cancer cell proliferation, DMS456; assay type: cell-based; details: >20% inhibition at 48-96 hours, MTT, SRB, luminescence or BrDU
Procedure: as §1, §2, §3

[12] = tested on: retinal ganglion cells (RGCs); test: OGD in cultured primary retinal ganglion cells, PI fluorescence; assay type: cell-based, rat; details: 5 μM, 24 hours after 3 hour OGD
Description: Acute and chronic retinal ischemia are major causes of blindness. Retinal damage from glaucoma, also termed “slow excitotoxicity” afflicts millions of people each year and is the second leading cause of blindness worldwide (after cataracts). Diabetic retinopathy is also very common, afflicting about 40% of diabetics and, while less commonly producing complete blindness, is a leading cause of visual impairment. The retina is an extension of the CNS, and was the first organ in which excitotoxicity was described. This invention discloses TPRM7 antagonists that can inhibit anoxic retinal damage. To examine this, we cultured primary retinal ganglion cells (RGCs) and organotypic whole retinas from neonatal rat pups by standard methods and exposed them to OGD (1 or 3 hours). […] This underscores our earlier discussion that inhibiting TRPM7 is a ubiquitous mechanism for the reduction of ischemic damage.

[13] = tested on: SW13 adrenal carcinoma cells; test: Cancer cell proliferation, SW13; assay type: cell-based; details: SW13, FIG. 79
Procedure: as §1, §2, §3

[14] = tested on: K+ currents; test: K+ currents in cultured cortical neurons; assay type: cell-based
Procedure: (§4) To examine selectivity of a subset of these TRPM7 inhibitors, experiments were performed to determine whether TRPM7 antagonists cross-react with other ionic channels and receptors. […] From a therapeutic perspective, knowledge of cross-reactivity of candidate drugs could shed light on other ischemic mechanisms and raise awareness of potential side effects. M21 has no effect on voltage-sensitive Na+, and Ca2+ currents in cultured cortical neurons […] TRPM7-expressing HEK293 cells, but inhibits K+ currents by about 20% at membrane potentials of −10 mV. M21 had no effect on agonist-induced Ca2+ changes in HEK293 cells transfected with constructs for TRPM2, TRPM4, TRPM6, TRPV1, TRPC2 and TRPA1. M21 also has no effect on NMDA and AMPA receptor currents in cultured neurons. […] Similar experiments were performed with other TRPM7 inhibitors including M5 and M11.

[15] = tested on: voltage-sensitive Ca2+ currents; test: Voltage-sensitive Ca2+ currents in cultured cortical neurons; assay type: cell-based; details: at concentrations sufficient to inhibit TRPM7
Procedure: as §4

[16] = tested on: voltage-sensitive Na+ currents; test: Voltage-sensitive Na+ currents in cultured cortical neurons; assay type: cell-based; details: at concentrations sufficient to inhibit TRPM7
Procedure: as §4

[17] = molecular target: T1, TRPM2 (Homo sapiens, UniProt O94759); test: Agonist-induced Ca2+ changes in HEK293 cells transfected with TRPM2; assay type: cell-based
T1 construct: expressed in transfected cells; host or cells: HEK293
Procedure: as §4

[18] = molecular target: T2, TRPV1 (Homo sapiens, UniProt Q8NER1); test: Agonist-induced Ca2+ changes in HEK293 cells transfected with TRPV1; assay type: cell-based
T2 construct: expressed in transfected cells; host or cells: HEK293
Procedure: as §4

[19] = tested on: AMPA receptor; test: AMPA receptor currents in cultured neurons; assay type: cell-based
Procedure: as §4

[20] = molecular target: T3, TRPC2 (Mus musculus, UniProt Q9R244); test: Agonist-induced Ca2+ changes in HEK293 cells transfected with TRPC2; assay type: cell-based
T3 construct: expressed in transfected cells; host or cells: HEK293
Procedure: as §4

[21] = tested on: NMDA receptor; test: NMDA receptor currents in cultured neurons; assay type: cell-based
Procedure: as §4

[22] = tested on: LAD coronary artery ligation; test: Mouse model of permanent LAD coronary artery ligation (myocardial infarction); assay type: in vivo; details: single intravenous dose within 15 minutes of LAD occlusion
[23] = molecular target: TRPM7 (Mus musculus, UniProt Q923J1); test: IC50 for TRPM7 (assay not stated); design: expressed in transfected cells; host or cells: HEK293 cells, tet-induced TRPM7
Chain of TRPM7 (Q923J1 whole entry): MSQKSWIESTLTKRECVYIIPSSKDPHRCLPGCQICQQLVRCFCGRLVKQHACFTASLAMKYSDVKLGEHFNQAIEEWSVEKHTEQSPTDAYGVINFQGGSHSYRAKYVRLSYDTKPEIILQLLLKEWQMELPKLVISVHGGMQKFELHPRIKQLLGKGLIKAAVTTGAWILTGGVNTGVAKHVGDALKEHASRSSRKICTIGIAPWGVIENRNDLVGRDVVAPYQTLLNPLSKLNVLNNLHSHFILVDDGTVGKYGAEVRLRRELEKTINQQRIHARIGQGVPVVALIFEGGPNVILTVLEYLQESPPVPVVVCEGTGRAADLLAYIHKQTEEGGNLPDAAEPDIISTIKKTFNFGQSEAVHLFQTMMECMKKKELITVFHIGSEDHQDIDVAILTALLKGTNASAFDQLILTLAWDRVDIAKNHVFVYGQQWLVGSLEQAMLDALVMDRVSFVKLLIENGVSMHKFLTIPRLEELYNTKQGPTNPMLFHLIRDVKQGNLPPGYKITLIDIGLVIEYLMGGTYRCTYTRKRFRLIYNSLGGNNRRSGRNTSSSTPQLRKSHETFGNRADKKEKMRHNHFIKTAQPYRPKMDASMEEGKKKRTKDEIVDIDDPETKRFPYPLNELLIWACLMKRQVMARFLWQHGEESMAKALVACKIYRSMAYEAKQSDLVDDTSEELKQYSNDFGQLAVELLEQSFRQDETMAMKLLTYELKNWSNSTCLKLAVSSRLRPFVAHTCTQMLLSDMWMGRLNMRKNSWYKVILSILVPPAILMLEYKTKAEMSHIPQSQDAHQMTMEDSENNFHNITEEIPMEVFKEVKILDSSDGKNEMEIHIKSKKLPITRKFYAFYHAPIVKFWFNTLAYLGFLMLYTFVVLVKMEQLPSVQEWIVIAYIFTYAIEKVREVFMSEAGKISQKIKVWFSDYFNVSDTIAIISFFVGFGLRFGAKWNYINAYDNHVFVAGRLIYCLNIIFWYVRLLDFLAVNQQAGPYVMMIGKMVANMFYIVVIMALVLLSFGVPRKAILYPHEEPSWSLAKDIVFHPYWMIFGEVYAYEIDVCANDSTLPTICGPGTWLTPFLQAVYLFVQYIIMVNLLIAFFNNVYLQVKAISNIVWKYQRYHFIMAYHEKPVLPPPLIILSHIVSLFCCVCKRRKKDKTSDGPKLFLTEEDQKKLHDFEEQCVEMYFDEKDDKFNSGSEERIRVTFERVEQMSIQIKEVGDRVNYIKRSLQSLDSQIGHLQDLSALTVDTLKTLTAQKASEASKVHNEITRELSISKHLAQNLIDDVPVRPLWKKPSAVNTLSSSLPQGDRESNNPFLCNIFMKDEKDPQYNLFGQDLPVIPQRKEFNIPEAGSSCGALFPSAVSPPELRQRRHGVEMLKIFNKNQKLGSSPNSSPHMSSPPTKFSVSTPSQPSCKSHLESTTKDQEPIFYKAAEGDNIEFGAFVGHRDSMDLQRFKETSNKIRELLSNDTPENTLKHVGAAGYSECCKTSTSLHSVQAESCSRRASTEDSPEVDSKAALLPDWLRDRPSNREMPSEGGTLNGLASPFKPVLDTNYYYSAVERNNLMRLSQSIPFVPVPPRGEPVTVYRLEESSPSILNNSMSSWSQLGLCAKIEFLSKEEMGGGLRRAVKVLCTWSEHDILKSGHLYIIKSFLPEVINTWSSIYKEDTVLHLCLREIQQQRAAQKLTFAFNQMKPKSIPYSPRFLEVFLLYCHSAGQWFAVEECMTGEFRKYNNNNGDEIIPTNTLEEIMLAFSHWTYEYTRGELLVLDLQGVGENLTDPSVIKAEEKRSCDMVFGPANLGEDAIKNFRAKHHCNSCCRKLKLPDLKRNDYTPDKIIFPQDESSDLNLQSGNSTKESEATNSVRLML

T3 sequence (Q9R244 whole entry, species assumed): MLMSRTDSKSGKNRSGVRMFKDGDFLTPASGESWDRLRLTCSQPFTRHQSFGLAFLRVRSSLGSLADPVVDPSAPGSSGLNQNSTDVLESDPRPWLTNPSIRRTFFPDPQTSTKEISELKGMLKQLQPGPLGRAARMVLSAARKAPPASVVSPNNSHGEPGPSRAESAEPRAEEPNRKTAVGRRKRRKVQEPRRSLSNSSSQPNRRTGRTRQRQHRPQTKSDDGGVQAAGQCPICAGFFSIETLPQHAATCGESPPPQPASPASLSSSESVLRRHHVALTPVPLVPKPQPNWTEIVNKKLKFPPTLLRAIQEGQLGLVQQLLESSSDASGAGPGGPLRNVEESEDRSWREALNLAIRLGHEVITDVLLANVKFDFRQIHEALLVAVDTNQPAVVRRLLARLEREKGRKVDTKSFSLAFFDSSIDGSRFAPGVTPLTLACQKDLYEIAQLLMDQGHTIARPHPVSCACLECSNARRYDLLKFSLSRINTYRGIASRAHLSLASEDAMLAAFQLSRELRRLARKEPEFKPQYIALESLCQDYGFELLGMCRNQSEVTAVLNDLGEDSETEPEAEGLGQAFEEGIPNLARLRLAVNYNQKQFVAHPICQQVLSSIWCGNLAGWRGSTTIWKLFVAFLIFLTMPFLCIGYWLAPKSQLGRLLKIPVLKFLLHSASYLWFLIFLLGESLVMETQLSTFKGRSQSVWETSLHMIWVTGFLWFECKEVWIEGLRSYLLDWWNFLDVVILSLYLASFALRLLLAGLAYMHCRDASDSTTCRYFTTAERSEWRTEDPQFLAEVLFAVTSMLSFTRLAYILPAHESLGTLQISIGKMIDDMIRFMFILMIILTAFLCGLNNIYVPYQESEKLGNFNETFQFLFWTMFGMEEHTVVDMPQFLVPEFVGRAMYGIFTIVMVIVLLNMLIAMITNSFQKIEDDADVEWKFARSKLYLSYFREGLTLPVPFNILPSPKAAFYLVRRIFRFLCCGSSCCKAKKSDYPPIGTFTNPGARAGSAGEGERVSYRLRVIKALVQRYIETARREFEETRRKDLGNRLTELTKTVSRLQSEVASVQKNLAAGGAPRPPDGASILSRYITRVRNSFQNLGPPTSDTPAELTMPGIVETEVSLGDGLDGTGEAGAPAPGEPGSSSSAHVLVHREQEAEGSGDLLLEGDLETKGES
T1 sequence (O94759 whole entry): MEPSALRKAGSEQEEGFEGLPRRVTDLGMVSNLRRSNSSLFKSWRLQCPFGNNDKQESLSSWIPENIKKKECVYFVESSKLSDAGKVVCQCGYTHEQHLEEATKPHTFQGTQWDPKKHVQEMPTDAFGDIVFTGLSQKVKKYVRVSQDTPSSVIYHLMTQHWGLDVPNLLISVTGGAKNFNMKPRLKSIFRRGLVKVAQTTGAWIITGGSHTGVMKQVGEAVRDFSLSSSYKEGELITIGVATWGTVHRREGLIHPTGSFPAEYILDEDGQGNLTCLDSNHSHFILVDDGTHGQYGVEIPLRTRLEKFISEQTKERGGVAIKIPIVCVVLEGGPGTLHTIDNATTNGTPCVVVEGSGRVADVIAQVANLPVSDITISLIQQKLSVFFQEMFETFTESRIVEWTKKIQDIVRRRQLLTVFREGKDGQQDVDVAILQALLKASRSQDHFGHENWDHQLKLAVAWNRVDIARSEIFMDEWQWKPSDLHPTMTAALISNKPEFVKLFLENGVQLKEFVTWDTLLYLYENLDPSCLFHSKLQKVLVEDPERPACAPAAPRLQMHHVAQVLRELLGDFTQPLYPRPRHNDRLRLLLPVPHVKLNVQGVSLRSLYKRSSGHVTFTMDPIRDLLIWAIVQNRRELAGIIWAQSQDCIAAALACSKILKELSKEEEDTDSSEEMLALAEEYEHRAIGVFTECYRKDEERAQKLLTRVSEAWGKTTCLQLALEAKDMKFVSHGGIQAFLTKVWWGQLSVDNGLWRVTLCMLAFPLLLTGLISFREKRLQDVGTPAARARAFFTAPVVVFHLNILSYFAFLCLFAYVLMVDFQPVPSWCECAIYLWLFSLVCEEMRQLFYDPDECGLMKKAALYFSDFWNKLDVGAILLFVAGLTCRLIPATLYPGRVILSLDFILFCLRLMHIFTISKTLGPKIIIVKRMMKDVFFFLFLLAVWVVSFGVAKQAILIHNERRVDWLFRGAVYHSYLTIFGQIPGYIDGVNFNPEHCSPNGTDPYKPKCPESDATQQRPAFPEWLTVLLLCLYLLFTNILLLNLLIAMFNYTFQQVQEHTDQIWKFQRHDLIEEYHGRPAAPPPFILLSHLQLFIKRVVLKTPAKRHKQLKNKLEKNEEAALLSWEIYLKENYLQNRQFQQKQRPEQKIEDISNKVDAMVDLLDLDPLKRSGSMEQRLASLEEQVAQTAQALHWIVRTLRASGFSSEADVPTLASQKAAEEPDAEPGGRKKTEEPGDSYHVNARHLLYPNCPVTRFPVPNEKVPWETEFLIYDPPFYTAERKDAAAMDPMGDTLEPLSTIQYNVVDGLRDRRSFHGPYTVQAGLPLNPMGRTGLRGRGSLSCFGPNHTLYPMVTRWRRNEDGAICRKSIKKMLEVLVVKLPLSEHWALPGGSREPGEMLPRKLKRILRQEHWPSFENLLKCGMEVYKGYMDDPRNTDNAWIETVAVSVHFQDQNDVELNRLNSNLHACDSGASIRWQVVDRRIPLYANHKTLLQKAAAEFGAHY

SMILES: COc1cc2c(cc1OC)C(c1sc3ccccc3c1Cl)=NCC2 [Compound M6]
- proliferation [1]: reduce the proliferation
- Demonstrated Reduction of Proliferation at or below 10 μM Inhibitor concentration [2]: DMS53 Lung cancer
- proliferation [3]: reduce the proliferation
- Demonstrated Reduction of Proliferation at or below 10 μM Inhibitor concentration [3]: B16F10 melanoma
- IC50 ([3]; B16-F10, 72 h, B16-F10, Exp 1, 72 hours, read-out: IC50): 16.5 µM
- IC50 ([3]; B16-F10, 72 h, B16-F10, Exp 2, 72 hours, read-out: IC50): 14.3 µM
- IC50 ([3]; B16-F10, B16-F10, mean of Exp 1 and Exp 2, read-out: Mean IC50): 15.6 µM
- Demonstrated Reduction of Proliferation at or below 10 μM Inhibitor concentration [4]: U2OS osteosarcoma
- proliferation (BrDU incorporation) [5]: significantly reduce proliferation
- IC50 ([6]; 72 h, Y79, Exp 1, 72 hours, read-out: IC50): 36.3 µM
- IC50 ([6]; 72 h, Y79, Exp 2, 72 hours, read-out: IC50): 38.6 µM
- death of cancer cells by MTT assay ([6]; Y79, 1-7.5 μM, 48-72 hours): resulted in the death of the cancer cells
- IC50 ([6]; Y79, mean of Exp 1 and Exp 2, read-out: Mean IC50): 37.5 µM
- toxicity (PI uptake) [7]: not toxic; also recorded: do not show toxicity
- MTD [8]: ≥ 20 mg/kg
- Demonstrated Reduction of Proliferation at or below 10 μM Inhibitor concentration ([9]; H292, >20% inhibition at 48-96 hours, MTT, SRB, luminescence or BrDU): H292 non small cell lung cancer
- IC50 ([9]; NCI-H292, 72 h, H292, Exp 1, 72 hours, read-out: IC50): 18.5 µM
- IC50 ([9]; NCI-H292, 72 h, H292, Exp 2, 72 hours, read-out: IC50): 15.9 µM
- IC50 ([9]; NCI-H292, H292, mean of Exp 1 and Exp 2, read-out: Mean IC50): 17.2 µM
- proliferation [10]: reduce proliferation
- Demonstrated Reduction of Proliferation at or below 10 μM Inhibitor concentration [11]: DMS456 lung cancer
- cytoprotection after OGD compared with U0126 or NA-1 [12]: more protective
- proliferation (BrDU incorporation) [13]: significantly reduce proliferation

SMILES: O=C(Nc1ccc(F)cc1)C(Sc1ccc(Cl)cc1)c1ccccc1 (stereo not drawn) [Compound M11]
- proliferation [1]: reduce the proliferation
- Demonstrated Reduction of Proliferation at or below 10 μM Inhibitor concentration [2]: DMS53 Lung cancer
- proliferation [3]: reduce the proliferation
- Demonstrated Reduction of Proliferation at or below 10 μM Inhibitor concentration [3]: B16F10 melanoma
- Demonstrated Reduction of Proliferation at or below 10 μM Inhibitor concentration [4]: U2OS osteosarcoma
- effect on potassium currents [14]: slight inhibition
- toxicity (PI uptake) [7]: do not show toxicity
- effect on voltage-sensitive Ca2+ currents [15]: did not affect
- proliferation [10]: reduce proliferation
- effect on voltage-sensitive Na+ currents [16]: did not affect

SMILES: Cc1c(Cc2ccc(Cl)c(Cl)c2)c(=O)oc2cc(O)ccc12 [Compound M21]
- effect on agonist-induced Ca2+ changes [17]: no effect
- effect on agonist-induced Ca2+ changes [18]: no effect
- effect on AMPA receptor currents [19]: no effect
- inhibition of K+ currents ([14]; membrane potentials of −10 mV): about 20%
- effect on agonist-induced Ca2+ changes [20]: no effect
- effect on voltage-sensitive Ca2+ currents [15]: no effect
- effect on NMDA receptor currents [21]: no effect
- number of cells exhibiting DNA fragmentation (TUNEL) [22]: significantly reduced the number of cells exhibiting DNA fragmentation
- infarct volume (TTC) ([22]; 24 h): significantly reduced infarct volume
- cytoprotection after OGD compared with U0126 or NA-1 [12]: more protective
- effect on voltage-sensitive Na+ currents [16]: no effect
- IC50 [23]: 1 to 2 µM
